In brackets after ≈: the same amount, converted by molar mass.
Test system: mouse leukemia L-1210 cells
Test: inhibitory effect on the proliferation of mouse leukemia L-1210 cells
Assay type: cell-based
Conditions: L1210; 50% inhibitory concentration; proliferation of mouse leukemia L-1210 cells (1 x 10⁶ cells/ml)
Experimental: Compound 683 of the present invention, as well as the structurally related X-14881 D, was tested for inhibitory effect on the proliferation of mouse leukemia L-1210 cells(1 x 10⁶ cells/ml). The 50% inhibitory concentration values thereof are as follows.

| IC50 [µg/mL] | SMILES |
| --- | --- |
| 3 (≈ 8.42 µM) | COc1cccc2c1C(O)C13C=CC4=C(C(=O)CC(C)C4O)C1(O3)C2O (centres unmarked) [Compound 683] |
| > 100 | COc1cccc2c1C(O)C1(O)C=CC3=C(C(=O)CC(C)C3O)C1C2O (centres unmarked) [X-14881 D] |

— patent EP0435221A2, “New benzanthracene compound and a process for preparing the same” (HOECHST JAPAN LIMITED, priority 1989, dated 1991)
